Like-named read-outs stand apart in the source and are kept apart here.
System: Boophilus microplus
Experiment: In vitro immersion of engorged female ticks in (S)-methoprene: egg laying, egg weight, hatching
Conditions: for Eggs Viable / Eggs Weight / Number of Ticks Laying Eggs (Day 14): 10 ticks treated; for Eggs Hatch (%): eggs incubated another 4 weeks; for Total Egg Mass / Total Viable Egg Mass / Total Number of Ticks Laying Eggs: both replicates; for Total Number of Ticks Laying Eggs: 20 ticks treated; for Percent Reduction in Egg Mass per Tick / Percent Reduction in Number of Ticks Laying Eggs / Percent Reduction in Total Egg Mass / inhibition at 100 ppm / inhibition at 1000 ppm / inhibition at 10000 ppm / inhibition at 100000 ppm: vs 0 ppm; for inhibition at 100 ppm / inhibition at 1000 ppm / inhibition at 10000 ppm / inhibition at 100000 ppm: Rhipicephalus microplus
Excerpt: Engorged female ticks were separated into groups of 10, weighed and placed in small containers. Group assignments were adjusted so that the total weight of ticks in each group was similar. Each container of 10 ticks was then randomly assigned to one of the five treatment groups, with two replicates per group. Each replicate of ten female ticks each was then immersed in a solution of (S)-methoprene at a concentration of 0, 100, 1000, 10000 and 100000 ppm of (S)-methoprene diluted in acetone:water (40:60 vN). The ticks were maintained immersed in a treatment for 2 minutes.
After exposure, ticks were removed and dried in a pad prepared with paper towels. Each group was then placed into a clean container identified with the treatment group and incubated for 2 weeks at approximately 27° Celsius and 60% or higher relative humidity to determine the proportion of egg laying females. Eggs laid were weighed and incubated for another 4-week period for hatching observation.

## COC(C)(C)CCC[C@H](C)C/C=C/C(C)=C/C(=O)OC(C)C [(S)-methoprene]
100 ppm
  Egg Mass per Tick: 0.173 g
  Viable Egg Mass per Tick: 0.173 g
  Total Egg Mass: 2.77 g
  Total Viable Egg Mass: 2.77 g
  Total Number of Ticks Laying Eggs: 16
  Percent Reduction in Egg Mass per Tick: 1%
  Percent Reduction in Number of Ticks Laying Eggs: 20%
  Percent Reduction in Total Egg Mass: 21%
100 ppm, Replicate A
  Eggs Viable: 1.38 g
  Eggs Weight: 1.38 g
  Number of Ticks Laying Eggs (Day 14): 9
  Eggs Hatch (%): 100%
100 ppm, Replicate B
  Eggs Viable: 1.39 g
  Eggs Weight: 1.39 g
  Number of Ticks Laying Eggs (Day 14): 7
  Eggs Hatch (%): 100%
1,000 ppm
  Egg Mass per Tick: 0.152 g
  Viable Egg Mass per Tick: 0.022 g
  Total Egg Mass: 0.91 g
  Total Viable Egg Mass: 0.13 g
  Total Number of Ticks Laying Eggs: 6
  Percent Reduction in Egg Mass per Tick: 13%
  Percent Reduction in Number of Ticks Laying Eggs: 70%
  Percent Reduction in Total Egg Mass: 74%
1,000 ppm, Replicate A
  Eggs Viable: 0.09 g
  Eggs Weight: 0.47 g
  Number of Ticks Laying Eggs (Day 14): 3
  Eggs Hatch (%): 20%
1,000 ppm, Replicate B
  Eggs Viable: 0.04 g
  Eggs Weight: 0.44 g
  Number of Ticks Laying Eggs (Day 14): 3
  Eggs Hatch (%): 10%
10,000 ppm
  Egg Mass per Tick: 0.134 g
  Viable Egg Mass per Tick: 0 g
  Total Egg Mass: 2.14 g
  Total Viable Egg Mass: 0 g
  Total Number of Ticks Laying Eggs: 16
  Percent Reduction in Egg Mass per Tick: 23%
  Percent Reduction in Number of Ticks Laying Eggs: 20%
  Percent Reduction in Total Egg Mass: 39%
10,000 ppm, Replicate A
  Eggs Viable: 0 g
  Eggs Weight: 1.22 g
  Number of Ticks Laying Eggs (Day 14): 9
  Eggs Hatch (%): 0%
10,000 ppm, Replicate B
  Eggs Viable: 0 g
  Eggs Weight: 0.92 g
  Number of Ticks Laying Eggs (Day 14): 7
  Eggs Hatch (%): 0%
100,000 ppm
  Egg Mass per Tick: 0.125 g
  Viable Egg Mass per Tick: 0 g
  Total Egg Mass: 1.00 g
  Total Viable Egg Mass: 0 g
  Total Number of Ticks Laying Eggs: 8
  Percent Reduction in Egg Mass per Tick: 29%
  Percent Reduction in Number of Ticks Laying Eggs: 60%
  Percent Reduction in Total Egg Mass: 71%
100,000 ppm, Replicate A
  Eggs Viable: 0 g
  Eggs Weight: 0.58 g
  Number of Ticks Laying Eggs (Day 14): 4
  Eggs Hatch (%): 0%
100,000 ppm, Replicate B
  Eggs Viable: 0 g
  Eggs Weight: 0.42 g
  Number of Ticks Laying Eggs (Day 14): 4
  Eggs Hatch (%): 0%
100 ppm, read-out: Percent Reduction in Viable Egg Mass
  inhibition at 100 ppm: 21%
100 ppm, read-out: Percent Reduction in Viable Egg Mass per Tick
  inhibition at 100 ppm: 1%
1,000 ppm, read-out: Percent Reduction in Viable Egg Mass
  inhibition at 1000 ppm: 96%
1,000 ppm, read-out: Percent Reduction in Viable Egg Mass per Tick
  inhibition at 1000 ppm: 87%
10,000 ppm, read-out: Percent Reduction in Viable Egg Mass
  inhibition at 10000 ppm: 100%
10,000 ppm, read-out: Percent Reduction in Viable Egg Mass per Tick
  inhibition at 10000 ppm: 100%
100,000 ppm, read-out: Percent Reduction in Viable Egg Mass
  inhibition at 100000 ppm: 100%
100,000 ppm, read-out: Percent Reduction in Viable Egg Mass per Tick
  inhibition at 100000 ppm: 100%
All treatment groups (100 to 100000 ppm)
  egg laying: Eggs were laid
Concentrations at and above 10,000 ppm
  egg viability: completely inhibited
Concentrations of 10,000 ppm and above
  egg hatching: did not hatch
